Results on 3 compounds are retold here after ChEMBL document CHEMBL5620385, “Orally bioavailable styryl derivative of rohitukine-N-oxide inhibits CDK9/T1 and the growth of pancreatic cancer cells” (Eur J Med Chem, 2023).

pIC50: −log10 of the molar value. Some results are limits rather than exact numbers.

The target in series [1] is Cyclin-dependent kinase 7/ cyclin H (Homo sapiens) (UniProt P51946+P50613). The series can be described thus: Inhibition of CDK7/cyclin H (unknown origin) at 10 uM by ADP-Glo assay relative to control. The format is protein-complex assay. For orientation: ADP-Glo first removes unused ATP, then detects ADP through luciferase.
In series [2] the target is CDK9/Cyclin K (Homo sapiens) (UniProt P50750+O75909). The series can be described thus: Inhibition of CDK9/cyclin K (unknown origin) at 10 uM by ADP-Glo assay relative to control. The format is protein-complex assay.
Series [3] concerns HCT-116. The series can be described thus: Antiproliferative activity against human HCT-116 cells assessed as cell growth inhibition at 10 uM incubated for 48 hrs by MTT assay relative to control. The format is functional.
The test system of series [4] is MIA PaCa-2. The series can be described thus: Antiproliferative activity against human MIA PaCa-2 cells assessed as cell growth inhibition at 10 uM incubated for 48 hrs by MTT assay relative to control. Type of series: functional. For orientation: Tetrazolium assays rely on reduction of a dye to a coloured formazan, in cell work by metabolically active cells.
Series [5] is described as follows: Antiproliferative activity against HEK293 cells assessed as cell growth inhibition at 10 uM incubated for 48 hrs by MTT assay relative to control. The format is toxicity, cell-based. The following applies: human.
The target of series [6] is Cyclin-dependent kinase 7/ cyclin H (Homo sapiens, UniProt P50613). The series can be described thus: Inhibition of CDK7/cyclin H (unknown origin) by ADP-Glo assay. The format is protein-complex assay.
For another series, the target named is CDK9/Cyclin K (Homo sapiens, UniProt P50750). The series can be described thus: Inhibition of CDK9/cyclin K (unknown origin) by ADP-Glo assay. Type of series: protein-complex assay.
Another series concerns the target CDK9/cyclin T1 (Homo sapiens, UniProt P50750). The series can be described thus: Inhibition of CDK9/cyclin T1 (unknown origin) by ADP-Glo assay. The format is protein-complex assay.
The test system of series [7] is HCT-116. The series can be described thus: Antiproliferative activity against human HCT-116 cells assessed as cell growth inhibition incubated for 48 hrs by MTT assay. The format is functional.
Series [8] deals with MIA PaCa-2. The series can be described thus: Antiproliferative activity against human MIA PaCa-2 cells assessed as cell growth inhibition incubated for 48 hrs by MTT assay. Type of series: functional.
A short description of series [9]: Antiproliferative activity against HEK293 cells assessed as cell growth inhibition incubated for 48 hrs by MTT assay. The format is toxicity, cell-based. The note with it: human.
For series [10], the system named is MIA PaCa-2. The series can be described thus: Induction of intracellular ROS generation in human MIA PaCa-2 cells incubated for 48 hrs by DCFDA dye based analysis. Type of series: functional, cell-based.
Series [11] relates to MIA PaCa-2. The series can be described thus: Induction of mitochondrial membrane potential loss in human MIA PaCa-2 cells incubated for 48 hrs by Rhodamine-123 dye based analysis. The format is functional, cell-based.
Series [12] deals with MIA PaCa-2. The series can be described thus: Induction of apoptosis in human MIA PaCa-2 cells assessed as apoptotic body formation incubated for 48 hrs by DAPI staining based analysis. Type of series: functional, cell-based.
Series [13] relates to MIA PaCa-2. The series can be described thus: Induction of apoptosis in human MIA PaCa-2 cells assessed as chromatin condensation incubated for 48 hrs by DAPI staining based analysis. The format is functional, cell-based.
The nature of series [14]: Metabolic stability in human liver microsomes assessed as compound remaining at 10 uM measured after 30 mins in presence of NADPH by HPLC analysis. The format is ADME, Microsome. The following applies: 0.5 h. On the technique in general: Microsomes from liver hold many membrane-bound enzymes, among them those of drug oxidation.
Series [15] in a line: Metabolic stability in mouse liver microsomes assessed as compound remaining at 10 uM measured after 30 mins in presence of NADPH by HPLC analysis. Type of series: ADME, Microsome. The following applies: 0.5 h.
Series [16] is described as follows: C0 in BALB/c mouse at 2.5 mg/kg, iv measured for 6 hrs by LC-MS/MS analysis. The format is ADME, organism-based. The following applies: in vivo.
Series [17] is described as follows: AUC(0 to t) in BALB/c mouse at 2.5 mg/kg, iv measured for 6 hrs by LC-MS/MS analysis. Type of series: ADME, organism-based. The note with it: in vivo.
Series [18] is described as follows: AUC(0 to infinity) in BALB/c mouse at 2.5 mg/kg, iv measured for 6 hrs by LC-MS/MS analysis. The following applies: in vivo. Type of series: ADME, organism-based.
Series [19] in a line: Half life in BALB/c mouse at 2.5 mg/kg, iv measured for 6 hrs by LC-MS/MS analysis. Type of series: ADME, organism-based. The note with it: in vivo.
Series [20] can be described thus: Volume of distribution in BALB/c mouse at 2.5 mg/kg, iv measured for 6 hrs by LC-MS/MS analysis. The following applies: in vivo. Type of series: ADME, organism-based.
A short description of series [21]: Clearance in BALB/c mouse at 2.5 mg/kg, iv measured for 6 hrs by LC-MS/MS analysis. Type of series: ADME, organism-based. The note with it: in vivo.
Series [22] is described as follows: Cmax in BALB/c mouse at 30 mg/kg, po measured for 6 hrs by LC-MS/MS analysis. Type of series: ADME, organism-based. The note with it: in vivo.
A short description of series [23]: Tmax in BALB/c mouse at 30 mg/kg, po measured for 6 hrs by LC-MS/MS analysis. Type of series: ADME, organism-based. The note with it: in vivo.
Series [24] in a line: AUC(0 to t) in BALB/c mouse at 30 mg/kg, po measured for 6 hrs by LC-MS/MS analysis. Type of series: ADME, organism-based. The note with it: in vivo.
Series [25] in a line: AUC(0 to infinity) in BALB/c mouse at 30 mg/kg, po measured for 6 hrs by LC-MS/MS analysis. Type of series: ADME, organism-based. The following applies: in vivo.
Series [26] in a line: Half life in BALB/c mouse at 30 mg/kg, po measured for 6 hrs by LC-MS/MS analysis. The format is ADME, organism-based. The following applies: in vivo.
Series [27] in a line: Volume of distribution in BALB/c mouse at 30 mg/kg, po measured for 6 hrs by LC-MS/MS analysis. Type of series: ADME, organism-based. The note with it: in vivo.
Series [28] in a line: Clearance in BALB/c mouse at 30 mg/kg, po measured for 6 hrs by LC-MS/MS analysis. The format is ADME, organism-based. The note with it: in vivo.

Sequence of Cyclin-dependent kinase 7/ cyclin H (P51946 whole entry): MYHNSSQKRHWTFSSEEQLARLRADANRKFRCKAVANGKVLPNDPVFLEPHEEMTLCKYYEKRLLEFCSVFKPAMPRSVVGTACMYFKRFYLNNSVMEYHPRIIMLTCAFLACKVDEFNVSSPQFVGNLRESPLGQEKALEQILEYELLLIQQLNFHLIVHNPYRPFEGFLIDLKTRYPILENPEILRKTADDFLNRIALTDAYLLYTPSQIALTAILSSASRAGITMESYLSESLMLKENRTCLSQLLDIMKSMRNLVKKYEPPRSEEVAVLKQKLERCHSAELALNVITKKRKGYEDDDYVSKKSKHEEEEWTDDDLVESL
Sequence of Cyclin-dependent kinase 7/ cyclin H (P50613 whole entry): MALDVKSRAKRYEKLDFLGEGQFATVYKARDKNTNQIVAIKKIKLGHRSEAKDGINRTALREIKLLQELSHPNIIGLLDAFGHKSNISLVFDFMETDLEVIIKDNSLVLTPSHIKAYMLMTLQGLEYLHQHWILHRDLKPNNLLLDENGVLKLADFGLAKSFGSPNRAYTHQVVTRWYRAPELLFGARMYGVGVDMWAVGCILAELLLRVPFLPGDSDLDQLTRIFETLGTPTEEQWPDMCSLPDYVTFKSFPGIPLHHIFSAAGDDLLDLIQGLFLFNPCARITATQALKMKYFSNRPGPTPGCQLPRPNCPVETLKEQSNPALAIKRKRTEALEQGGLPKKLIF
Sequence of CDK9/Cyclin K (P50750 whole entry): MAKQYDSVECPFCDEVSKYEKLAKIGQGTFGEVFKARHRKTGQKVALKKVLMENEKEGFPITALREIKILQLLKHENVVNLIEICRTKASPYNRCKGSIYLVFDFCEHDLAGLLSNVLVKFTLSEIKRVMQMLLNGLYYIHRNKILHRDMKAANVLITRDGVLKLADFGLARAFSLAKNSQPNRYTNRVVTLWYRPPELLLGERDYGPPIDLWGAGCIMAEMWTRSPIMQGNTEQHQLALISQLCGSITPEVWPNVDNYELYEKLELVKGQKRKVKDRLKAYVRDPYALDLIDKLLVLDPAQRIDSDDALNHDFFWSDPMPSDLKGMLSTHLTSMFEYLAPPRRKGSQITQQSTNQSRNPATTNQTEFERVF
Sequence of CDK9/Cyclin K (O75909 whole entry, further chain): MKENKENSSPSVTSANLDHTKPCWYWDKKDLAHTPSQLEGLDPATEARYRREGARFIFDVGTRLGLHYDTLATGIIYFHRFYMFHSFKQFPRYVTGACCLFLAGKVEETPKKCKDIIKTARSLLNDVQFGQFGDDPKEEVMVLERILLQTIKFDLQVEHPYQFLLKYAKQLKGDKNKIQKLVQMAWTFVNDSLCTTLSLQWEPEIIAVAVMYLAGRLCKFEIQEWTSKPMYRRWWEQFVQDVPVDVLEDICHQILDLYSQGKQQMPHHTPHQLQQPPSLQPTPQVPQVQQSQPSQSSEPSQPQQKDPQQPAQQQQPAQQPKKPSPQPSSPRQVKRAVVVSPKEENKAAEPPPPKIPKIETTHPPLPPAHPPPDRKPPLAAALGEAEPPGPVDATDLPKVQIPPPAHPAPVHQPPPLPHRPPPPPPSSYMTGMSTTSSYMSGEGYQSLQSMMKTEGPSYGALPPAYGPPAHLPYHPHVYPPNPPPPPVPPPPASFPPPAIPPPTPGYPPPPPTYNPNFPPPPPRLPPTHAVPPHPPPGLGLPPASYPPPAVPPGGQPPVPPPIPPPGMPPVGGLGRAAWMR
Sequence of CDK9/cyclin T1 (O60563 whole entry): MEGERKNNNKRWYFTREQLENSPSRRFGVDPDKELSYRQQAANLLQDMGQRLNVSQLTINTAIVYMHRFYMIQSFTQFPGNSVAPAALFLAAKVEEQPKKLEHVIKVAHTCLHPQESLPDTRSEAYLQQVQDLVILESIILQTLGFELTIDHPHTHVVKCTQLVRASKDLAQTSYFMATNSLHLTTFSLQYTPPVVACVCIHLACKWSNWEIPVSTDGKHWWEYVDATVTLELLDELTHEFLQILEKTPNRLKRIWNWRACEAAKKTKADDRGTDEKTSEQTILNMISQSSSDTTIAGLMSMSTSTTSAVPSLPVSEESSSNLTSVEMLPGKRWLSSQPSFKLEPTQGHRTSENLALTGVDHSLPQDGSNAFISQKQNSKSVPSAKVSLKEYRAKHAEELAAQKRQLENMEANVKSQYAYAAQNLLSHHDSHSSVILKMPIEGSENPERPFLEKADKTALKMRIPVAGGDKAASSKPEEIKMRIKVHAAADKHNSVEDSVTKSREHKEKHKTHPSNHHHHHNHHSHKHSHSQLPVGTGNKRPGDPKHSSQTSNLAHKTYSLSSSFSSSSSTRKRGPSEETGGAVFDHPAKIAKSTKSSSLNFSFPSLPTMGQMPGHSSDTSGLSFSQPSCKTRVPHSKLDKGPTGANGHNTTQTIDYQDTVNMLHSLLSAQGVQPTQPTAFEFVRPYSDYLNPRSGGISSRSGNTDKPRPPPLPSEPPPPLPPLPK
Sequence of CDK9/cyclin T1 (P50750 whole entry): as the sequence (P50750 whole entry) above

For orientation: inhibition means the drop in the measured response relative to a control, in per cent. Broadly, the pIC50 is −log10 of the IC50, conventionally taken in molar units. Low readings indicate a high IC50, high ones a low IC50. As a reminder, the GI50 is the concentration that inhibits growth by half. The AUC(0-t) is the area under the concentration-time curve up to a stated or last time point. Higher therefore signals high exposure. By AUC(0-inf) is commonly meant total exposure, with the tail of the curve extrapolated. As a reminder, the half-life is the time in which the quantity being followed falls by half. The term clearance denotes the volume of plasma or blood freed of the substance per unit of time. In general, Cmax refers to the peak of the concentration-time curve. The Tmax is the time at which the peak concentration occurs. As usually defined, the CL/F is clearance divided by bioavailability, as obtained after extravascular dosing. `C[N+]1([O-])CC[C@H](c2c(O)cc(O)c3c(=O)cc(/C=C/c4ccccc4Cl)oc23)[C@H](O)C1` (some centres undefined): the values for the inhibition in series [1] and in [2] were 62.7% and 61.7%, respectively. For the same compound, the inhibition at 10 µM in the series on HCT-116 [3] came out at 67%; with MIA PaCa-2 [4], 56.3%. In series [5], the inhibition at 48 h, 10 µM was 29.7%. The pIC50 in [6] was 5.84; against CDK9/Cyclin K it was 5.55; at CDK9/cyclin T1, 6.78. Also, the GI50 in the series on HCT-116 [7] is 5.1 µM; in the series with MIA PaCa-2 [8], 6.07 µM. Further, the GI50 at 48 h in series [9] was 90.3 µM. Further, the Activity result in the series with MIA PaCa-2 [10], in the series on MIA PaCa-2 [11], in the series on MIA PaCa-2 [12] and in the series on MIA PaCa-2 [13] was “Dose-Dependent Effect” throughout. The Stability entry in series [14] and in [15] was “Stable” in each case. This compound registered a C0 at 6 h in series [16] of 5720 ng/mL. Further, the AUC(0-t) at 6 h in series [17] was 341 ng·h/mL; in series [24], 510 ng·h/mL. Also, the AUC(0-inf) in [18] was 346 ng·h/mL; in series [25], 525 ng·h/mL. For the same compound, the half-life in [19] is 17.4 min; in series [26], 102 min. The Vd in series [20] was found to be 3 L/kg; in series [27], 32.4 L/kg. The compound further gave a clearance in series [21] of 120 mL/min/kg. The same compound registered a Cmax in series [22] of 731 ng/mL. Moreover, the Tmax in series [23] came out at 4.98 min. In addition, the CL/F in [28] was 953 mL/min/kg.

For the compound `CC(=O)O[C@H]1C(=O)[C@@]2(C)[C@H]([C@H](OC(=O)c3ccccc3)[C@]3(O)C[C@H](OC(=O)[C@H](O)[C@@H](NC(=O)c4ccccc4)c4ccccc4)C(C)=C1C3(C)C)[C@]1(OC(C)=O)CO[C@@H]1C[C@@H]2O`, the Activity result in the series with MIA PaCa-2 [11], with MIA PaCa-2 [12] and in the series with MIA PaCa-2 [13] was “Dose-Dependent Effect” in each case.

On to `C[N+]1([O-])CC[C@H](c2c(O)cc(O)c3c(=O)cc(/C=C/c4ccc(Cl)cc4)oc23)[C@H](O)C1` (some centres undefined), for which the inhibition was 18.2% in [1] and 35.8% in series [2]. Further, the inhibition at 10 µM in the series on HCT-116 [3] turned out to be 39.3%; in the series on MIA PaCa-2 [4], 44.2%. Also, the inhibition at 48 h, 10 µM in series [5] was 9.1%. Besides, the pIC50 was less than 5.00 in series [6], less than 5.00 at CDK9/Cyclin K and 5.41 against CDK9/cyclin T1. Further, the GI50 in the series on HCT-116 [7] and with MIA PaCa-2 [8] was more than 10 µM in each case. In addition, the GI50 at 48 h in [9] turned out to be 46.3 µM.
